Legend:
Assay type in all cases: cell-based
[1] = system: Caco-2 human colon epithelial cells; assay: eGFP mRNA transfection, Caco-2 cells (96-well); conditions: for Transfection efficiency (eGFP %) CaCO2: ratio 1/2, 150 ng eGFP mRNA, 24 h
Protocol: Caco-2 (ATCC® HTB-37™) human colon epithelial cells were grown in DMEM 4.5 g/L glucose with 20% FBS supplemented with 1% non-essential amino acids, 1 mM sodium pyruvate, 2 mM glutamine and 100 U/mL of penicillin and 100 μg/mL of streptomycin at 37° C. in a 5% CO2 in air atmosphere.
(§1) mRNA eGFP (996 nt, reference L-6101) from TriLink Technologies was used for the in vitro transfection experiments and expressed enhanced green fluorescent protein which is a common reporter gene (eGFP). This mRNA was capped with a Cap 0, polyadenylated and modified with 5-methylcytidine and pseudo-uridine.
(§2) One day before transfection, Caco-2, THP-1 or BJ Cells were seeded at 10 000, 25 000, or 5 000 cells per well (96-well plate format), respectively, in 125 μL of their respective complete medium and incubated at 37° C. in a 5% CO2 in air atmosphere. For Jurkat cells, 25 000 cells were seeded per well prior transfection. On the day of transfection 150 ng of mRNA was added in 11.5 μL of 5% glucose solution, mixed with a vortex and incubated for 5 minutes at rt. Then, 1 μL of 1 mM cationic liposomal formulation was added onto the diluted mRNA, mixed with a vortex and incubated for 15 minutes at rt. The formulated mRNA solution (12.5 μL) was added into the well and the plate was incubated for 24 hours at 37° C. in a 5% CO2 in air atmosphere.
(§3) For the GFP expression analysis, the cell culture medium was removed for the adherent cells and 50 μL of trypsin-EDTA (1×, Lonza) was added and the plate was incubated for 5 minutes at 37° C. 150 μL of complete medium were added to neutralize the trypsin, and the GFP expression was analysed (2000 events) by flow cytometry (Exc 488 nm, Em 520 nm) using a Guava easyCyte 6HT cytometer (Millipore).
(§4) All these new liposomal formulations (Table 1) were assessed to deliver mRNA expressing an enhanced green fluorescent protein (eGFP) as reporter gene in order to determine the gene expression and the transfection efficiency (Table 2). mRNA eGFP capped with a Cap 0 in 5′-end, polyadenylated in 3′-end and modified with 5-methylcytidine and pseudo-uridine was used in the transfection assay. The transfection assay was performed as described in the Experimental section where 150 ng of mRNA eGFP was complexed with 1 μL of 1 mM cationic liposomal formulations in a 5% glucose solution before the addition on the cells. One day post-transfection, the eGFP expression was analyzed by flow cytometry to determine the percentage of transfection. Four different cell lines were used in this assay from easy to transfect cells to hard to transfect cells with plasmid DNA, including human BJ skin fibroblast cells, THP-1 human peripheral blood monocytes, Caco-2 human colon epithelial cells and Jurkat Clone E6-1 human T lymphoblast cells, respectively.

[2] = system: THP-1 human peripheral blood monocyte cells; assay: eGFP mRNA transfection, THP-1 cells (96-well); conditions: ratio 1/2, 150 ng eGFP mRNA, 24 h
Protocol: THP-1 (ATCC® TIB-202™) human peripheral blood monocyte cells were grown in RPMI-1640 with 10% FBS and supplemented with 10 mM HEPES buffer, 1 mM sodium pyruvate, 0.05 mM 2-mercaptoethanol, 2 mM glutamine, 100 U/mL of penicillin and 100 μg/mL of streptomycin at 37° C. in a 5% CO2 in air atmosphere.
as §1, §2, §3, §4

[3] = system: Jurkat Clone E6-1 human T lymphoblast cells; assay: eGFP mRNA transfection, Jurkat cells (96-well); conditions: 150 ng eGFP mRNA, 24 h
Protocol: Jurkat Clone E6-1 (ATCC® TIB-152™) human T lymphoblast cells were grown in RPMI-1640 (LONZA) with 10% of FBS (EUROBIO) and supplemented with 2 mM Glutamine (LONZA), 100 U/mL of penicillin and 100 μg/mL of streptomycin (LONZA) at 37° C. in a 5% CO2 in air atmosphere.
as §1, §2, §3, §4

[4] = system: BJ human skin fibroblast cells; assay: eGFP mRNA transfection, BJ cells (96-well); conditions: co-lipid DOPE, ratio 1/2; 150 ng eGFP mRNA; 24 h
Protocol: BJ (ATCC® CRL-2522™) human skin fibroblast cells were grown in Eagle's Minimum Essential Medium with 10% FBS and supplemented with 1% non-essential amino acids, 1 mM sodium pyruvate, 2 mM glutamine and 100 U/mL of penicillin and 100 μg/mL of streptomycin at 37° C. in a 5% CO2 in air atmosphere.
as §1, §2, §3, §4

[5] = co-lipid DOPE, ratio compound/co-lipid 1/2, 1 μL of 1 mM formulation, flow cytometry

Row | Transfection efficiency (eGFP %) CaCO2 ([1]; co-lipid DOPE) | Transfection efficiency (eGFP %) CaCO2 ([1]; co-lipid DPyPE) | SMILES | Transfection efficiency (eGFP %) THP-1 ([2]; co-lipid DOPE) | Transfection efficiency (eGFP %) Jurkat [3, 5] | Transfection efficiency (eGFP %) BJ [4] | GFP expression one day post-transfection, comparison of co-lipids ([1]; CaCo2 cells, co-lipid DPyPE versus DOPE, PaLiPE, DiLiPE, molar ratio 1:2 (FIG. 3)) | Transfection efficiency (eGFP %) THP-1 ([2]; co-lipid DPyPE) | Transfection efficiency (eGFP %) Jurkat ([3]; co-lipid DPyPE, ratio 1/2) | Transfection efficiency (eGFP %) Jurkat ([3]; co-lipid DPyPE, ratio 1/1.5)
1 | 15-25% |  | CCCCCCCC/C=C\CCCCCCCCC(CCCCCCCC/C=C\CCCCCCCC)[n+]1ccn(C)c1.[Cl-] [Compound W1.4, 1-methyl-3-(heptatriaconta-9,28-dien-19-yl)-1-methyl-1H-imidazol-3-ium chloride] | 80-85% | 10-15% | 80-95% |  |  |  | 
2 | 5-10% |  | CCCCCCC/C=C\CCCCCCCCC(CCCCCCCCCCCCCC)[n+]1ccn(C)c1 (stereo not drawn) [Compound W2.5] | 70-75% | 1-5% | 70-85% |  |  |  | 
3 | 35-40% |  | CCCCCCC/C=C\CCCCCCCCC(CCCCCCCCCCCCCCCCCC)[n+]1ccn(C)c1.[Cl-] (stereo not drawn) [Compound W3.5, 1-methyl-3-(hexatriacont-8-en-18-yl)-1H-imidazol-3-ium chloride] | 35-45% | 10-15% | 80-95% |  |  |  | 
4 | 5-10% |  | CCCCCCCCCCCCCCCCCCC(CCCCCCCCCC)[n+]1ccn(C)c1.[Cl-] (stereo not drawn) [Compound W6.3, 1-methyl-3-(nonacosan-11-yl)-1H-imidazol-3-ium chloride] | 30-40% | 20-25% | 80-85% |  |  |  | 
5 | 5-15% |  | CCCCCCCCCCCCCCCCCCC(CCCCCCCCCCCCCCCCC)C[n+]1ccn(C)c1.[Cl-] (stereo not drawn) [Compound W7.4, 1-methyl-3-(2-heptadecylicosyl)-1H-imidazol-3-ium chloride] | 40-50% | 5-15% | 65-75% |  |  |  | 
6 |  |  | CCCCCCC/C=C\CCCCCCCCC(CCCCCCCC/C=C\CCCCCCCC)[n+]1ccn(C)c1.[Cl-] (stereo not drawn) [Compound W8.7, 1-methyl-3-(hexatriaconta-8,27-dien-18-yl)-1H-imidazol-3-ium] | 70-80% | 10-15% | 80-85% |  |  |  | 
7 | 40-50% |  | CCCCCCCCCCCCCCC(CCCCCCCCCCCCCC)CCCCC(CCCCCCCCCCCCCC)[n+]1ccn(C)c1.[Cl-] (stereo not drawn) [Compound W9.7, 1-methyl-3-(20-tetradecyltetratriacontan-15-yl)-1H-imidazol-3-ium chloride] | 70-80% | 10-15% | 90-95% | optimal |  |  | 
8 | 65-75% |  | CCCCCCCC/C=C\CCCCCCCCC(CCCCC(CCCCCCCCCCCCCC)CCCCCCCCCCCCCC)[n+]1ccn(C)c1.[Cl-] (stereo not drawn) [Compound W10.7, 1-methyl-3-(24-tetradecyloctatriacont-9-en-19-yl)-1H-imidazol-3-ium chloride] | 70-80% | 25-30% | 90-95% |  |  |  | 
9 | 35-45% |  | CCCCCCCCCCCCCCCCCCC(CCCCC(CCCCCCCCCCCCCC)CCCCCCCCCCCCCC)[n+]1ccn(C)c1.[Cl-] (stereo not drawn) [Compound W11.7, 1-methyl-3-(24-tetradecyloctatriacontan-19-yl)-1H-imidazol-3-ium chloride] | 80-90% | 15-25% | 90-95% |  |  |  | 
10 |  |  | CCCCCCCCCCCCCCCCCCC(CCCCCCCCCCCCCCCCCC)CCCCC(CC1CCCCC1)[n+]1ccn(C)c1.[Cl-] (stereo not drawn) [Compound W14.7, 1-methyl-3-(1-cyclohexyl-7-octadecylpentacosan-2-yl)-1H-imidazol-3-ium chloride] | 55-65% | 25-35% |  |  |  |  | 
11 |  |  | CCCCCCCCCCCCCCCCCCC(CCCCCCCCCCCCCCCCCC)CCCCC(Cc1ccccc1)[n+]1ccn(C)c1.[Cl-] (stereo not drawn) [Compound W15.7, 1-methyl-3-(7-octadecyl-1-phenylpentacosan-2-yl)-1H-imidazol-3-ium chloride] | 55-70% | 25-30% |  |  |  |  | 
12 | 15-20% |  | CCCCCCCCCCCCCCCCCCC(CCCCCCCCCCCCCCCCCC)CCCCC(CCC(C)CCCC(C)C)[n+]1ccn(C)c1.[Cl-] (stereo not drawn) [Compound W16.7, 1-methyl-3-(2,6-dimethyl-14-octadecyldotriacontan-9-yl)-1H-imidazole-3-ium chloride] | 75-80% | 35-40% |  |  |  |  | 
13 |  |  | CCCCCCCCCCCCCCCCCCC(CCCCCCCCCCCCCCCCCC)CCCCC(CCCCCC)[n+]1ccn(C)c1.[Cl-] (stereo not drawn) [Compound W17.7, 1-methyl-3-(12-octadecyltriacontan-7-yl)-1H-imidazol-3-ium chloride] | 70-75% | 30-35% |  |  |  |  | 
14 |  |  | CCCCCCCCCCCCCCC(CCCCCCCCCCCCCC)CCCCC(CCCCC(CCCCCCCCCCCCCC)CCCCCCCCCCCCCC)[n+]1ccn(C)c1.[Cl-] [Compound W18.9, 1-methyl-3-(15,25-ditetradecylnonatriacontan-20-yl)-1H-imidazol-3-ium chloride] | 80-85% | 25-30% |  |  |  |  | 
15 |  |  | CCCCCCCCCCCCCCCCCCNC(CCCCCCCCCC)CCCC(CCCCCCCCCC)n1cc[n+](C)c1.Cl.[Cl-] (stereo not drawn) [Compound W19.7, 1-methyl-3-(15-(octadecylammonio)pentacosan-11-yl)-1H-imidazol-3-ium chloride] | 40-50% | 40-50% |  |  |  |  | 
16 | 50-60% | 60-70% | CCCCCCCCCCCCCCCCCCC(CCCCCCCCCCCCCCCCCC)CCCCC(CCC(C)CCCC(C)C)[n+]1ccn(CCCC)c1.[Cl-] (stereo not drawn) [Compound W21.7, 1-butyl-3-(2,6-dimethyl-14-octadecyldotriacontan-9-yl)-1H-imidazol-3-ium chloride] | 70-80% | 40-50% |  |  | 70-80% | 55-65% | 
17 |  |  | CCCCCCCCCCCCCCC(CCCCCCCCCCCCCC)CCCCC(CCC(C)CCCC(C)C)[n+]1ccn(CCCC)c1.[Cl-] (stereo not drawn) [Compound W22.7, 1-butyl-3-(2,6-dimethyl-14-tetradecyloctacosan-9-yl)-1H-imidazol-3-ium chloride] | 70-80% | 50-60% |  |  | 80-85% | 40-55% | 
18 |  |  | CCCCn1cc[n+](C(CCCCC(CCC(C)CCCC(C)C)CCC(C)CCCC(C)C)CCC(C)CCCC(C)C)c1.[Cl-] (stereo not drawn) [Compound W23.7, 1-butyl-3-(14-(3,7-dimethyloctyl)-2,6,17,21-tetramethyldocosan-9-yl)-1H-imidazol-3-ium chloride] |  |  |  |  |  |  | 25-30%

— US20210386841A1, “COMPOSITIONS FOR TRANSFECTING mRNA INTO A CELL AND THEIR APPLICATIONS” (POLYPLUS TRANSFECTION, priority 2018, published 2021)
